Measured values as given in paper PMC8876135, “The Catestatin-Derived Peptides Are New Actors to Fight the Development of Oral Candidosis” (International Journal of Molecular Sciences, 2022).
Values after ≈ are worked out from the molar mass of the structure shown. Like-named read-outs stand apart in the source and are kept apart here. Non-standard residues stand in square brackets, D forms with d. Residues, ends and D or L forms follow the SMILES beside them.

How the values were obtained:
Candida glabrata “R” = type: cell-based; conditions: 24 h, pH 5.6
Experimental: (§1) Strains of Candida albicans, Candida tropicalis and Candida glabrata, frequently found in cases of oral candidosis, were tested for L-bCtl and D-bCtl antimicrobial activity. The sensitive strain of C. albicans (ATCC 10231^TM) was provided by ATCC (Manassas, VA, USA). The resistant strain of C. albicans, the sensitive and resistant strains of C. tropicalis as well as the sensitive and resistant strains of C. glabrata were kindly provided by Dr Valérie Letscher-Bru (Laboratory of Parasitolology and Medical Mycology, Strasbourg, France).
(§2) Each Candida strain was first plated on agar plates and cultured for 24 h at 37 °C. After incubation, one colony per isolate was transferred into 5 mL of Sabouraud medium pH 5.6 (Sigma-Aldrich, Le Pont-de-Claix, France) supplemented with tetracycline (10 μg/mL) and cefotaxime (10 μg/mL) and incubated aerobically under agitation at 37 °C for 24 h. The resulting cultures were resuspended at an absorbance of 0.001 (OD600nm = 0.001) in Sabouraud medium. The OD600nm was evaluated with a spectrophotometer (BIO-RAD Smatspec^TM plus, Schiltigheim, France). In preliminary experiments, we tested RPMI-1640 culture and Sabouraud media. Similar data were obtained but the experiments were more reproducible with Sabouraud than with RPMI1640. Therefore, Sabouraud medium was used in the present study.
(§3) The yeasts (OD600nm = 0.001) were then plated on 96-well microplates and treated with different concentrations of the peptides of interest. After 24 h incubation at 37 °C under agitation, yeast growth was assessed by optical density (OD600nm) using a microplate spectrophotometer (Multiscan EX, Thermo Fisher Scientific, Waltham, MA, USA). All tests were performed in triplicate. The MIC (minimal inhibitory concentration), defined as the lowest concentration of drug able to inhibit 100% of the growth of a pathogen, was determined for the different peptides against all previously described Candida strains, using a modified Gompertz model.

Candida tropicalis “R” = type: cell-based; conditions: 24 h, pH 5.6
Experimental: as §1, §2, §3

Candida tropicalis “S” = type: cell-based; conditions: 24 h, pH 5.6
Experimental: as §1, §2, §3

Candida glabrata “S” = type: cell-based; conditions: 24 h, pH 5.6
Experimental: as §1, §2, §3

Candida albicans “R” = type: cell-based; conditions: 24 h, pH 5.6
Experimental: as §1, §2, §3

[1] = system: Candida albicans “S” (ATCC 10231); type: cell-based; conditions: ATCC 10231, 24 h, pH 5.6
Experimental: as §1, §2, §3

C. glabrata “R” = assay: Susceptibility of Candida strains to antifungal drugs; type: cell-based; design: key to Susceptibility category: S: susceptible standard dosing regimen; R: resistant, therapeutic failure with increased exposure; I: susceptible increased exposure; conditions: strain C. glabrata “R”; for Susceptibility category: EUCAST breakpoints (CLSI for Caspofungin)
Experimental: as §1

C. glabrata “S” = assay: as above; type: cell-based; design: key to Susceptibility category: S: susceptible standard dosing regimen; R: resistant, therapeutic failure with increased exposure; I: susceptible increased exposure; conditions: strain C. glabrata “S”; for Susceptibility category: EUCAST breakpoints (CLSI for Caspofungin)
Experimental: as §1

C. albicans “S” = assay: as above; type: cell-based; design: key to Susceptibility category: S: susceptible standard dosing regimen; R: resistant, therapeutic failure with increased exposure; I: susceptible increased exposure; conditions: strain C. albicans “S”; for Susceptibility category: EUCAST breakpoints (CLSI for Caspofungin)
Experimental: as §1

C. tropicalis “R” = assay: as above; type: cell-based; design: key to Susceptibility category: S: susceptible standard dosing regimen; R: resistant, therapeutic failure with increased exposure; I: susceptible increased exposure; conditions: strain C. tropicalis “R”; for Susceptibility category: EUCAST breakpoints (CLSI for Caspofungin)
Experimental: as §1

C. albicans “R” = assay: as above; type: cell-based; design: key to Susceptibility category: S: susceptible standard dosing regimen; R: resistant, therapeutic failure with increased exposure; I: susceptible increased exposure; conditions: strain C. albicans “R”; for Susceptibility category: EUCAST breakpoints (CLSI for Caspofungin)
Experimental: as §1

C. tropicalis “S” = assay: as above; type: cell-based; design: key to Susceptibility category: S: susceptible standard dosing regimen; R: resistant, therapeutic failure with increased exposure; I: susceptible increased exposure; conditions: strain C. tropicalis “S”; for Susceptibility category: EUCAST breakpoints (CLSI for Caspofungin)
Experimental: as §1

C. lusitaniae “S” = assay: as above; type: cell-based; design: key to Susceptibility category: S: susceptible standard dosing regimen; R: resistant, therapeutic failure with increased exposure; I: susceptible increased exposure; conditions: strain C. lusitaniae “S”; for Susceptibility category: EUCAST breakpoints (CLSI for Caspofungin)
[2] = system: Candida albicans “S” (ATCC 10231); design: method as in Dartevelle et al. [28]; conditions: ref Dartevelle et al. [28], cited from earlier work; for MIC C. albicans “S”: values marked *, MIC = 100% growth inhibition
“S” C. albicans = assay: Transmission electron microscopy of treated cells; type: cell-based, Candida albicans; conditions: 1 × MIC and 10 × MIC, 1 h at 37 °C
Experimental: (§4) Precultures of sensitive and resistant Candida albicans strains were incubated for 2 h at 37 °C without shaking on glass bottom 24-well microplates previously treated with poly-L-lysine. The L-bCtl or D-bCtl peptides at concentrations of 1X MIC and 10X MIC were then added to the culture and incubated for 1 h at 37 °C with minimal shaking. The control samples correspond to the incubation of the different Candida albicans strains without any prior treatment. After 1 h incubation with or without each peptide of interest and a brief rinsing in 0.125 M cacodylate buffer, cells were fixed for 2 h 30 min in a 4% (v/v) glutaraldehyde buffered in 0.1 M sodium phosphate at pH 7.2. This step was followed with three 10 min washes in 0.1 M phosphate buffer at pH 7.2. Then the samples were post-fixed in a freshly prepared 2% (v/v) aqueous solution of potassium permanganate for 45 min at room temperature. The samples were washed three more times and dehydrated in graded series of ethanol of 7 min each. […]
(§5) Ultrathin sections were performed using a Reichert Jung Ultra-cut E ultra-microtome (Leica Microsystems, Nanterre, France) equipped with a diamond knife. […] Images were recorded on Kodak SO163 film (Sigma Aldrich, Saint-Quentin Fallavier, France). […]

“R” C. albicans = assay: Transmission electron microscopy of treated cells; type: cell-based, Candida albicans; conditions: 1 × MIC and 10 × MIC, 1 h at 37 °C
Experimental: as §4, §5

[3] = Nakaseomyces glabratus, read-out: MIC
[4] = Candida albicans, read-out: MIC
[5] = Candida tropicalis, read-out: MIC
[6] = Clavispora lusitaniae, read-out: MIC

| Compound | MIC Candida glabrata “R” (Candida glabrata “R”) | MIC Candida tropicalis “R” (Candida tropicalis “R”) | MIC Candida tropicalis “S” (Candida tropicalis “S”) | MIC Candida glabrata “S” (Candida glabrata “S”) | MIC C. albicans “R” (Candida albicans “R”) | Susceptibility category (C. glabrata “R”) | Susceptibility category (C. glabrata “S”) | Susceptibility category (C. albicans “S”) | Susceptibility category (C. tropicalis “R”) | Susceptibility category (C. albicans “R”) | Susceptibility category (C. tropicalis “S”) | Susceptibility category (C. lusitaniae “S”) | MIC (C. glabrata “R”; [3]) | MIC (C. glabrata “S”; [3]) | MIC (C. albicans “S”; [4]) | MIC (C. tropicalis “R”; [5]) | MIC (C. albicans “R”; [4]) | MIC (C. tropicalis “S”; [5]) | MIC (C. lusitaniae “S”; [6]) | further results |
| --- | --- | --- | --- | --- | --- | --- | --- | --- | --- | --- | --- | --- | --- | --- | --- | --- | --- | --- | --- | --- |
| CSCC[C@H](NC(=O)[C@H](CO)NC(=O)[C@@H](N)CO)C(=O)N[C@@H](CCCCN)C(=O)N[C@@H](CC(C)C)C(=O)N[C@@H](CO)C(=O)N[C@@H](Cc1ccccc1)C(=O)N[C@@H](CCCNC(=N)N)C(=O)N[C@@H](C)C(=O)N[C@@H](CCCNC(=N)N)C(=O)N[C@@H](C)C(=O)N[C@@H](Cc1ccc(O)cc1)C(=O)NCC(=O)N[C@@H](Cc1ccccc1)C(=O)N[C@@H](CCCNC(=N)N)C(=O)NCC(=O)N1CCC[C@H]1C(=O)NCC(=O)N1CCC[C@H]1C(=O)N[C@@H](CCC(N)=O)C(=O)N[C@@H](CC(C)C)C(=O)O [hCts] (H-SSMKLSFRARAYGFRGPGPQL-OH) | >240 µg/mL | >240 µg/mL | >240 µg/mL | >240 µg/mL | >240 µg/mL |  |  |  |  |  |  |  |  |  |  |  |  |  |  | MIC C. albicans “S” [1]: >240 µg/mL |
| Caspofungin |  |  |  |  |  | I | I | S | S | S | S | S |  |  |  |  |  |  |  | MIC (C. glabrata “R”): 0.25 µg/mL; MIC (C. glabrata “S”): 0.25 µg/mL; MIC (C. albicans “S”): 0.094 µg/mL; MIC (C. tropicalis “R”): 0.125 µg/mL; MIC (C. albicans “R”): 0.047 µg/mL; MIC (C. tropicalis “S”): 0.125 µg/mL; MIC (C. lusitaniae “S”): 0.125 µg/mL |
| CSCC[C@@H](NC(=O)[C@@H](CO)NC(=O)[C@H](N)CCCNC(=N)N)C(=O)N[C@H](CCCNC(=N)N)C(=O)N[C@H](CC(C)C)C(=O)N[C@H](CO)C(=O)N[C@H](Cc1ccccc1)C(=O)N[C@H](CCCNC(=N)N)C(=O)N[C@H](C)C(=O)N[C@H](CCCNC(=N)N)C(=O)NCC(=O)N[C@H](Cc1ccc(O)cc1)C(=O)NCC(=O)N[C@H](Cc1ccccc1)C(=O)N[C@H](CCCNC(=N)N)C(=O)O [Peptide P1] (H-[dR][dS][dM][dR][dL][dS][dF][dR][dA][dR]G[dY]G[dF][dR]-OH; N-terminus and C-terminus assumed) | 15.0 µg/mL (≈ 8.06 µM) | 2.0 µg/mL (≈ 1.08 µM) | 8.1 µg/mL (≈ 4.35 µM) | 13.4 µg/mL (≈ 7.2 µM) | 9.6 µg/mL (≈ 5.16 µM) |  |  |  |  |  |  |  |  |  |  |  |  |  |  | MIC C. albicans “S” (as stated in discussion) ([2]; peptide alone, same figures as the * values of Tables 2 and 3): 5.5 µM (≈ 10.2 µg/mL); MIC C. albicans “S” [2]: 5.5 * µg/mL; MIC C. albicans “S” ([2]; listed as D-form of bCtl): 5.5 µg/mL (≈ 2.96 µM); TEM observation (“S” C. albicans): fungal membrane lysis; TEM observation (“R” C. albicans): fungal membrane lysis |
| C[C@@H](c1ncncc1F)[C@](O)(Cn1cncn1)c1ccc(F)cc1F [Voriconazole] |  |  |  |  |  | R | S | S | R | R | S | S | 8 µg/mL (≈ 22.9 µM) | 0.032 µg/mL (≈ 0.0916 µM) | 0.002 µg/mL (≈ 0.00573 µM) | 1.5 µg/mL (≈ 4.29 µM) | > 32 µg/mL | 0.047 µg/mL (≈ 0.135 µM) | 0.012 µg/mL (≈ 0.0344 µM) |  |
| C[C@@H]1[C@H](O)[C@@H](C)/C=C/C=C/C=C/C=C/C=C/C=C/C=C/[C@H](O[C@@H]2O[C@H](C)[C@@H](O)[C@H](N)[C@@H]2O)C[C@@H]2O[C@](O)(C[C@@H](O)C[C@@H](O)[C@H](O)CC[C@@H](O)C[C@@H](O)CC(=O)O[C@H]1C)C[C@H](O)[C@H]2C(=O)O [Amphotericin B] |  |  |  |  |  | S | S | S | S | S | S | S | 0.5 µg/mL (≈ 0.541 µM) | 0.125 µg/mL (≈ 0.135 µM) | 0.19 µg/mL (≈ 0.206 µM) | 0.125 µg/mL (≈ 0.135 µM) | 0.125 µg/mL (≈ 0.135 µM) | 0.125 µg/mL (≈ 0.135 µM) | 0.75 µg/mL (≈ 0.812 µM) |  |
| OC(Cn1cncn1)(Cn1cncn1)c1ccc(F)cc1F [Fluconazole] |  |  |  |  |  | R | I | S | R | R | S | S | > 256 µg/mL | 3 µg/mL (≈ 9.8 µM) | 0.125 µg/mL (≈ 0.408 µM) | 96 µg/mL (≈ 313 µM) | > 256 µg/mL | 0.5 µg/mL (≈ 1.63 µM) | 0.38 µg/mL (≈ 1.24 µM) |  |
